For 35 molecules, IC50 results are on record in patent US7582645B2, “Pyrimidine derivatives for treatment of hyperproliferative disorders” (Bayer Pharmaceuticals Corporation, priority 2003, dated 2009).

Counter-ions that a name gives are not always drawn.

The term IC50 denotes the concentration that gives 50% inhibition. Low values mean higher potency, high ones lower potency.

One test deals with HCT116 cells. The test is described as follows: HCT116 cytotoxic activity assay (Alamar Blue, 72 h). Type of test: cell-based. The note with it: Homo sapiens, HCT-116, 72 h compound exposure, greater than 500 nM but less than or equal to 2 μM. The procedure:
Representative compounds of this invention were tested for cytotoxicity using the above-described assay procedure with the following results: […]
`COCCN1CCN(c2cc(Oc3ccc(Nc4cc(-c5ccccc5)nc(N)n4)cc3)ccn2)CC1` [Example 136, N4*-[4-({2-[4-(2-methoxyethyl)piperazin-1-yl]pyridin-4-yl}oxy)phenyl]-6-phenylpyrimidine-2,4-diamine] showed an IC50 of 500 to 2000 nM.

In turn, `Nc1nc(Nc2ccc(Oc3ccnc(C(F)(F)F)c3)cc2)cc(-c2ccc(O)cc2C(F)(F)F)n1` [Example 176, 4-{2-amino-6-[(4-{[2-(trifluoromethyl)pyridin-4-yl]oxy}phenyl)amino]pyrimidin-4-yl}-3-(trifluoromethyl)phenol] registered an IC50 of 500 to 2000 nM.

With `CN1CCN(c2cc(Oc3ccc(Nc4cc(-c5ccccc5)nc(N)n4)cc3)ccn2)CC1` [Example 135, N4*-(4-{[2-(4-methylpiperazin-1-yl)pyridin-4-yl]oxy}phenyl)-6-phenylpyrimidine-2,4-diamine], the IC50 lay in the range of 500 to 2000 nM.

`Nc1nc(Nc2ccc(Oc3ccnc(O)c3)cc2)cc(-c2ccccc2)n1` [Example 65, 4-{4-[(2-amino-6-phenylpyrimidin-4-yl)amino]phenoxy}pyridin-2-ol] had a concentration for half-maximal inhibition (IC50) of 500 to 2000 nM.

`N#Cc1cc(Oc2ccc(Nc3cc(-c4cccs4)nc(N)n3)cc2)ccn1` [Example 239, 4-(4-{[2-amino-6-(2-thienyl)pyrimidin-4-yl]amino}phenoxy) pyridine-2-carbonitrile] gave an IC50 of 500 to 2000 nM.

`NC(=O)c1cc(Oc2ccc(Nc3cc(-c4ccc(F)cc4)nc(N)n3)cc2)ccn1` [Example 73, 4-(4-{[2-amino-6-(4-fluorophenyl)pyrimidin-4-yl]amino}phenoxy) pyridine-2-carboxamide] registered an IC50 of 500 to 2000 nM.

Take `NC(=O)c1cc(Oc2cccc(Nc3cc(-c4cccc(OCc5ccccc5)c4)nc(N)n3)c2)ccn1` [Example 281, 4-[3-({2-amino-6-[3-(benzyloxy)phenyl]pyrimidin-4-yl}amino)phenoxy]pyridine-2-carboxamide]: the IC50 fell in the range of 500 to 2000 nM.

On to `CN(C)[C@H]1CCN(c2cc(Oc3ccc(Nc4cc(-c5ccccc5)nc(N)n4)cc3)ccn2)C1` [Example 144, N4*-[4-({2-[(3S)-3-(dimethylamino)pyrrolidin-1-yl]pyridin-4-yl}oxy)phenyl]-6-phenylpyrimidine-2,4-diamine], for which the IC50 is 500 to 2000 nM.

Molecule `Cc1cc(Oc2ccc(Nc3cc(-c4cccc(O)c4)nc(N)n3)cc2)ccn1` [Example 306, 3-[2-amino-6-({4-[(2-methylpyridin-4-yl)oxy]phenyl}amino)pyrimidin-4-yl]phenol] yielded an IC50 of 500 to 2000 nM.

Still in this test, the particulars now being: Homo sapiens, HCT-116, 72 h compound exposure, greater than 2 μM.
`COC[C@H]1CCCN1c1cc(Oc2cccc(Nc3cc(-c4ccccc4)nc(N)n3)c2)ccn1` [Example 147, N4*-[3-({2-[(2R)-2-(methoxymethyl)pyrrolidin-1-yl]pyridin-4-yl}oxy)phenyl]-6-phenylpyrimidine-2,4-diamine] came in with an IC50 greater than 2000 nM.

As to `CNC(=O)c1cc(Oc2cccc(Nc3cc(-c4ccc(F)cc4)nc(N)n3)c2)ccn1` [Example 72, 4-(3-{[2-amino-6-(4-fluorophenyl)pyrimidin-4-yl]amino}phenoxy)-N-methylpyridine-2-carboxamide], the IC50 is greater than 2000 nM.

The molecule `COc1ccc(C(C)C)cc1-c1cc(Nc2cccc(Oc3ccnc(C(N)=O)c3)c2)nc(N)n1` [Example 289, 4-(3-{[2-amino-6-(5-isopropyl-2-methoxyphenyl)pyrimidin-4-yl]amino}phenoxy)pyridine-2-carboxamide] came in with an IC50 greater than 2000 nM.

On to `CC(C)NCc1cc(Oc2ccc(Nc3cc(-c4ccccc4)nc(N)n3)cc2)ccn1` [Example 44, N^4-[4-({2-[(isopropylamino)methyl]pyridin-4-yl}oxy)phenyl]-6-phenylpyrimidine-2,4-diamine], for which the IC50 is greater than 2000 nM.

In turn, `CC(C)c1cccc(-c2cc(Nc3ccc(Oc4ccnc(C(N)=O)c4)cc3)nc(N)n2)c1` [Example 270, 4-(4-{[2-amino-6-(3-isopropylphenyl)pyrimidin-4-yl]amino}phenoxy) pyridine-2-carboxamide] yielded an IC50 greater than 2000 nM.

On to `Nc1nc(Nc2ccc(Oc3cc(N(CCO)CCO)ccn3)cc2)cc(-c2ccccc2)n1` [Example 108, 2,2′-[(2-{4-[(2-amino-6-phenylpyrimidin-4-yl)amino]phenoxy}pyridin-4-yl)imino]diethanol], for which the IC50 is greater than 2000 nM.

The test is the same for the next values; noted with them: Homo sapiens, HCT-116, 72 h compound exposure, less than or equal to 500 nM.
`Cc1ccccc1-c1cc(Nc2cccc(Oc3ccnc(C(N)=O)c3)c2)nc(N)n1` [Example 290, 4-(3-{[2-amino-6-(2-methylphenyl)pyrimidin-4-yl]amino}phenoxy) pyridine-2-carboxamide] registered a half-inhibitory concentration (IC50) of no more than 500 nM.

Molecule `Nc1nc(Nc2ccc(Oc3ccnc(C(F)(F)F)c3)cc2)cc(-c2ccc(F)cc2)n1` [Example 196, 6-(4-fluorophenyl)-N4*-(4-{[2-(trifluoromethyl)pyridin-4-yl]oxy}phenyl)pyrimidine-2,4-diamine] had an IC50 of no more than 500 nM.

As to `CC(C)c1ccccc1-c1cc(Nc2ccc(Oc3ccnc(C(F)(F)F)c3)cc2)nc(N)n1` [Example 162, 6-(2-isopropylphenyl)-N4*- (4-{[2-(trifluoromethyl)pyridin-4-yl]oxy}phenyl) pyrimidine-2,4-diamine], the IC50 is no more than 500 nM.

In the case of `Cc1cc(O)ccc1-c1cc(Nc2ccc(Oc3ccnc(C(F)(F)F)c3)cc2)nc(N)n1` [Example 174, 4-{2-amino-6-[(4-{[2-(trifluoromethyl)pyridin-4-yl]oxy}phenyl)amino]pyrimidin-4-yl}-3-methylphenol], the half-maximal inhibitory concentration (IC50) was no more than 500 nM.

The molecule `N#Cc1cc(Oc2ccc(Nc3cc(-c4ccccc4OC(F)(F)F)nc(N)n3)cc2)ccn1` [Example 275, 4-[4-({2-amino-6-[2-(trifluoromethoxy)phenyl]pyrimidin-4-yl}amino)phenoxy]pyridine-2-carbonitrile] came in with an IC50 of no more than 500 nM.

`Nc1ccc(-c2cc(Nc3ccc(Oc4ccnc(C(F)(F)F)c4)cc3)nc(N)n2)cn1` [Example 181, 6-(6-aminopyridin-3-yl)-N4*-(4-{[2-(trifluoromethyl)pyridin-4-yl]oxy}phenyl)pyrimidine-2,4-diamine] returned an IC50 of no more than 500 nM.

`Nc1nc(Nc2ccc(Oc3ccnc(C(F)(F)F)c3)cc2)cc(-c2cccc(O)c2)n1` [Example 167, 3-{2-amino-6-[(4-{[2-(trifluoromethyl)pyridin-4-yl]oxy}phenyl)amino]pyrimidin-4-yl}phenol] had an IC50 of no more than 500 nM.

The molecule `COc1ccc(-c2cc(Nc3ccc(Oc4ccnc(C(F)(F)F)c4)cc3)nc(N)n2)cc1` [Example 190, 6-(4-methoxyphenyl)-N4*-(4-{[2-(trifluoromethyl)pyridin-4-yl]oxy}phenyl)pyrimidine-2,4-diamine] had an IC50 of no more than 500 nM.

Molecule `COc1ccc(Oc2ccc(Nc3cc(-c4ccccc4)nc(N)n3)cc2)cc1` [Example 13, N^4-[4-(4-methoxyphenoxy)phenyl]-6-phenylpyrimidine-2,4-diamine] gave an IC50 of no more than 500 nM.

`Nc1nc(Nc2ccc(Oc3ccnc(C(=O)NCCO)c3)cc2)cc(-c2ccccc2)n1` [Example 45, 4-[4-(2-Amino-6-phenylpyrimidin-4-ylamino)phenoxy]pyridine-2-carboxylic acid (2-hydroxyethyl)amide] displayed a half-maximal inhibitory concentration (IC50) of no more than 500 nM.

For the molecule `Nc1nc(Nc2ccc(Oc3ccnc(N4CCOCC4)c3)cc2)cc(-c2ccccc2)n1` [Example 134, N4*-{4-[(2-morpholin-4-ylpyridin-4-yl)oxy]phenyl}-6-phenylpyrimidine-2,4-diamine], the IC50 was no more than 500 nM.

`Nc1nc(Nc2ccc(Oc3ccnc(C(F)(F)F)c3)cc2)cc(-c2cccs2)n1` [Example 188, 6-(2-thienyl)-N4*-(4-{[2-(trifluoromethyl)pyridin-4-yl]oxy}phenyl)pyrimidine-2,4-diamine] came in with an IC50 of no more than 500 nM.

The molecule `Cc1ccc(-c2cc(Nc3ccc(Oc4ccnc(C(F)(F)F)c4)cc3)nc(N)n2)cc1` [Example 211, 6-(4-methylphenyl)-N4*-(4-{[2-(trifluoromethyl)pyridin-4-yl]oxy}phenyl)pyrimidine-2,4-diamine] gave an IC50 of no more than 500 nM.

`Nc1nc(Nc2ccc(Oc3ccnc(F)c3)cc2)cc(-c2ccccc2)n1` [Example 64, N4*-{4-[(2-fluoropyridin-4-yl)oxy]phenyl}-6-phenylpyrimidine-2,4-diamine trifluoroacetate] showed an IC50 of no more than 500 nM.

`COc1ccc(-c2cc(Nc3ccc(Oc4ccnc(C(F)(F)F)c4)cc3)nc(N)n2)cc1N` [Example 168, 6-(3-amino-4-methoxyphenyl)-N4*-(4-{[2-(trifluoromethyl)pyridin-4-yl]oxy}phenyl) pyrimidine-2,4-diamine] gave an IC50 of no more than 500 nM.

Molecule `Nc1nc(Nc2ccc(Oc3ccnc(N4CCC[C@H]4CO)c3)cc2)cc(-c2ccccc2)n1` [Example 145, [(2S)-1-(4-{4-[(2-amino-6-phenylpyrimidin-4-yl)amino]phenoxy}pyridin-2-yl)pyrrolidin-2-yl]methanol] displayed an IC50 of no more than 500 nM.

In the case of `Nc1nc(Nc2ccc(Oc3ccnc(C(F)(F)F)c3)cc2)cc(-c2ccc(O)cc2)n1` [Example 51, 4-{2-amino-6-[(4-{[2-(trifluoromethyl)pyridin-4-yl]oxy}phenyl)amino]pyrimidin-4-yl}phenol], the IC50 was no more than 500 nM.

For the molecule `Cc1ccc(F)c(-c2cc(Nc3ccc(Oc4ccnc(C(F)(F)F)c4)cc3)nc(N)n2)c1` [Example 158, 6-(2-fluoro-5-methylphenyl)-N4*-(4-{[2-(trifluoromethyl)pyridin-4-yl]oxy}phenyl)pyrimidine-2,4-diamine], the IC50 is no more than 500 nM.

The molecule `COc1cccc(-c2cc(Nc3ccc(Oc4ccnc(C)c4)cc3)nc(N)n2)c1` [Example 316, 6-(3-methoxyphenyl)-N4*-{4-[(2-methylpyridin-4-yl)oxy]phenyl} pyrimidine-2,4-diamine] displayed an IC50 of no more than 500 nM.

In turn, `CC(C)c1ccc(-c2cc(Nc3ccc(Oc4ccnc(C(F)(F)F)c4)cc3)nc(N)n2)cc1` [Example 209, 6-(4-isopropylphenyl)-N4*-(4-{[2-(trifluoromethyl)pyridin-4-yl]oxy}phenyl)pyrimidine-2,4-diamine] had an IC50 of no more than 500 nM.
